The source of these data is paper PMC9663970, “New triazole-substituted triterpene derivatives exhibiting anti-RSV activity: synthesis, biological evaluation, and molecular modeling” (Beilstein Journal of Organic Chemistry, 2022).

Data set [1] relates to HIV protease. Also on record: method as in PMID 10071849. The following applies: read-out: IC50 HIV protease inhibition; cited from earlier work.
For data set [2], the system named is A549 cells. As to the kind of experiment: cells. The class given is cell-based. The following applies: for IC50: Homo sapiens, read-out: IC50 ± SD, concentration toxic to 50% of non-infected A549 cells.
Data set [3] has as its system VERO cells. As to the kind of experiment: cells. In kind it is cell-based. The following applies: for IC50: Chlorocebus sabaeus, 96 h, read-out: IC50 ± SD, concentration toxic to 50% of non-infected VERO cells.
The test system of data set [4] is RSV. As to the kind of experiment: Anti-RSV activity in RSV-infected A549 cells (MTT and SRB). The class given is cell-based, RSV A strain (line A2). The following applies: for Therapeutic index (TI) = IC50(A549)/EC50(A549 + RSV): IC50 in A549; for Therapeutic index (TI) = IC50(B16F10)/EC50(A549 + RSV): IC50 in B16F10; for Therapeutic index (TI) = IC50(HEP2)/EC50(A549 + RSV): IC50 in HEP2; for Therapeutic index (TI) = IC50(VERO)/EC50(A549 + RSV): IC50 in VERO.

The test system of data set [5] is B16F10 cells. As to the kind of experiment: cells. The class given is cell-based. The following applies: for IC50: Mus musculus, read-out: IC50 ± SD, concentration toxic to 50% of non-infected B16F10 cells.
Data set [6] has as its system SARS-CoV. The following applies: cited from earlier work.
For data set [7], the system named is HEP2 cells. As to the kind of experiment: cells. The class given is cell-based. The following applies: for IC50: Homo sapiens, read-out: IC50 ± SD, concentration toxic to 50% of non-infected HEP2 cells.
For data set [8], the system named is SARS-CoV. The following applies: in vitro in Vero cells; read-out: IC50 against SARS-CoV; cited from earlier work.
Data set [9] has as its system RSV protein F gene. In kind it is cell-based. The following applies: 12.5 µM, RSV-infected A549 cells, 96 h, compared to control.
The mark [10] stands for this setting: human respiratory syncytial virus, A549, read-out: EC50 ± SD, concentration that inhibits RSV replication by 50%, A549+RSV, treated 4 hours after viral infection, 96 h.
The mark [11] stands for this setting: human respiratory syncytial virus, A549, A549+RSV, treated 4 hours after viral infection, 96 h, read-out: EC50 ± SD, concentration that inhibits RSV replication by 50%.
Where [12] appears, read: MTT test, 96 h, non-infected A549 cells.
Setting [13] is: MTT test, non-infected VERO cells.
[14] abbreviates: B16-F10, MTT test, 96 h, non-infected B16F10 cells.
The mark [15] stands for this setting: HEp-2, MTT test, 96 h, non-infected HEP2 cells.

The structures appear in SMILES notation. Read-outs that look alike come from different tables or passages of the source.

`C=C(C)[C@@H]1CC[C@]2(C(=O)O)CC[C@]3(C)[C@H](CC[C@@H]4[C@@]5(C)CC[C@H](O)C(C)(C)[C@@H]5CC[C@]43C)[C@@H]12` [compound 1, betulinic acid, reference compound]: the IC50 is 8 µM in data set [1]; 17.8 ± 0.6 µM in data set [2] (A549, 96 h); 14.2 ± 0.2 µM in data set [3] (Vero); 22.7 ± 0.8 µM in data set [5] (B16-F10, 96 h); 28 ± 0.3 µM in data set [7] (HEp-2, 96 h). Moreover, the “Therapeutic index (TI) = IC50(A549)/EC50(A549 + RSV)” value in [4] amounted to 3.4. The “Therapeutic index (TI) = IC50(B16F10)/EC50(A549 + RSV)” value in [4] is 4.3. Further, the “Therapeutic index (TI) = IC50(HEP2)/EC50(A549 + RSV)” value in [4] is 5.3. In addition, the “Therapeutic index (TI) = IC50(VERO)/EC50(A549 + RSV)” value in data set [4] was 2.7. Also, the EC50 in data set [4] (setting [10]) is 5.3 ± 0.7 µM; in data set [6] (read-out: EC50 anti-SARS-CoV activity), 10 µM. The “SI anti-SARS-CoV activity” value in data set [6] is given as more than 10.
For `NC(=O)c1ncn([C@@H]2O[C@H](CO)[C@@H](O)[C@H]2O)n1` [RBV, ribavirin, reference compound], the EC50 in data set [4] (setting [11]) is 4.9 ± 1.4 µM.
In the case of `CC1(C)[C@@H](O[C@H]2O[C@H](C(=O)O)[C@@H](O)[C@H](O)[C@H]2O[C@@H]2O[C@H](C(=O)O)[C@@H](O)[C@H](O)[C@H]2O)CC[C@]2(C)[C@H]3C(=O)C=C4[C@@H]5C[C@@](C)(C(=O)O)CC[C@]5(C)CC[C@@]4(C)[C@]3(C)CC[C@@H]12` [glycyrrhizic acid], the IC50 in data set [8] was 365 µM.
Regarding `C#CCOC(=O)[C@]12CC[C@@H](C(=C)C)[C@@H]1[C@H]1CC[C@@H]3[C@@]4(C)CC[C@H](OC(C)=O)C(C)(C)[C@@H]4CC[C@@]3(C)[C@]1(C)CC2` [compound 5], the IC50 in data set [2] (A549, 96 h) came out at 88.8 ± 1 µM. For the same molecule, the IC50 in data set [3] (Vero) was 14.5 ± 0.2 µM. Besides, in data set [4], the “Therapeutic index (TI) = IC50(A549)/EC50(A549 + RSV)” value amounted to 148.0, the “Therapeutic index (TI) = IC50(B16F10)/EC50(A549 + RSV)” value amounted to 42.7, the “Therapeutic index (TI) = IC50(HEP2)/EC50(A549 + RSV)” value was 30.7 and the “Therapeutic index (TI) = IC50(VERO)/EC50(A549 + RSV)” value came out at 24.2. For the same molecule, the EC50 in data set [4] (setting [11]) came to 0.6 ± 0.8 µM. Further, the IC50 in [5] (B16-F10, 96 h) stood at 25.6 ± 0.5 µM. In addition, the IC50 in data set [7] (HEp-2, 96 h) worked out at 18.4 ± 0.6 µM.
For `CC(=O)OC1CCC2(C)C(CCC3(C)C2CC=C2C4C(C)C(C)CCC4(C(=O)OCc4cn(-c5cccc([N+](=O)[O-])c5)nn4)CCC23C)C1(C)C` (stereo not drawn) [compound 8], in data set [9], the “Reduction of RSV protein F gene expression” value is “approximately 65%”. The IC50 stood at 59.2 ± 0.9 µM in [2] (A549, 96 h); 21.6 ± 0.9 µM in data set [3] (Vero); 9.8 ± 0.6 µM in data set [5] (B16-F10, 96 h); 19.9 ± 1.2 µM in [7] (HEp-2, 96 h). In addition, the “Cytotoxicity (in words)” value in [2] (non-infected A549 cells), in data set [3] (non-infected VERO cells), in data set [5] (non-infected B16F10 cells) and in [7] (non-infected HEP2 cells) was “low cytotoxicity” throughout. In addition, in data set [4], the “Therapeutic index (TI) = IC50(B16F10)/EC50(A549 + RSV)” value is listed as 196.0. Further, in [4], the “Therapeutic index (TI) = IC50(HEP2)/EC50(A549 + RSV)” value is 398.0. In data set [4], the “Therapeutic index (TI) = IC50(VERO)/EC50(A549 + RSV)” value is reported as 432.0. In addition, the EC50 in data set [4] (setting [10]) is 0.053 µM.
`CC(=O)OC1CCC2(C)C(CCC3(C)C2CC=C2C4C(C)C(C)CCC4(C(=O)O)CCC23C)C1(C)C` (stereo not drawn) [compound 4]: the IC50 came to 133 ± 1.1 µM in data set [2] (setting [12]), 12.6 ± 1.2 µM in data set [3] (setting [13]), 12.4 ± 0.8 µM in [5] (setting [14]) and 17.2 ± 0.9 µM in data set [7] (setting [15]). In addition, the “Therapeutic index (TI) = IC50(A549)/EC50(A549 + RSV)” value in [4] was 9.3. Also, the “Therapeutic index (TI) = IC50(B16F10)/EC50(A549 + RSV)” value in [4] stood at 0.9. The “Therapeutic index (TI) = IC50(HEP2)/EC50(A549 + RSV)” value in data set [4] was 1.2. In data set [4], the “Therapeutic index (TI) = IC50(VERO)/EC50(A549 + RSV)” value stood at 0.9. Besides, the EC50 came to 14.3 µM in [4] (setting [10]) and 14.3 ± 0.6 µM in [4] (read-out: EC50 ± SD, concentration that inhibits RSV replication by 50%, A549+RSV, treated 4 hours after viral infection, 96 h).
As for `C=C(C)[C@@H]1CC[C@]2(C(=O)O)CC[C@]3(C)[C@H](CC[C@@H]4[C@@]5(C)CC[C@H](OC(C)=O)C(C)(C)[C@@H]5CC[C@]43C)[C@@H]12` [compound 3], in data set [2] (A549, 96 h), the IC50 worked out at 53 ± 0.9 µM. Besides, the IC50 in data set [3] (Vero) came out at 13.4 ± 2.1 µM. Further, in data set [4], the “Therapeutic index (TI) = IC50(A549)/EC50(A549 + RSV)” value was 1.2, the “Therapeutic index (TI) = IC50(B16F10)/EC50(A549 + RSV)” value came to 0.2, the “Therapeutic index (TI) = IC50(HEP2)/EC50(A549 + RSV)” value stood at 0.3 and the “Therapeutic index (TI) = IC50(VERO)/EC50(A549 + RSV)” value is given as 0.3. In data set [4] (setting [10]), the EC50 came to 44.4 ± 0.5 µM. For the same molecule, the IC50 in data set [5] (B16-F10, 96 h) came out at 10.2 ± 1.1 µM. Moreover, the IC50 in data set [7] (HEp-2, 96 h) was found to be 11.5 ± 1.5 µM.
As for `C[C@H]1[C@H](C)CC[C@]2(C(=O)O)CC[C@]3(C)C(=CC[C@@H]4[C@@]5(C)CC[C@H](O)C(C)(C)[C@@H]5CC[C@]43C)[C@H]12` [compound 2, ursolic acid, reference compound], the IC50 in [1] is 9 µM; in data set [2] (A549, 96 h) it was 26.7 ± 0.9 µM; in data set [3] (Vero) it was 12.9 ± 0.8 µM; in [5] (B16-F10, 96 h) it was 16.2 ± 0.8 µM; in data set [7] (HEp-2, 96 h) it was 26.9 ± 0.4 µM. The “Therapeutic index (TI) = IC50(A549)/EC50(A549 + RSV)” value in [4] stood at 1.5. Moreover, in data set [4], the “Therapeutic index (TI) = IC50(B16F10)/EC50(A549 + RSV)” value came to 0.9. In addition, the “Therapeutic index (TI) = IC50(HEP2)/EC50(A549 + RSV)” value in [4] is 1.6. Further, the “Therapeutic index (TI) = IC50(VERO)/EC50(A549 + RSV)” value in data set [4] is 0.8. Also, in data set [4] (setting [10]), the EC50 was found to be 17.3 ± 0.9 µM.
On to `C=C(C)[C@@H]1CC[C@]2(C(=O)OCc3cn(-c4cccc([N+](=O)[O-])c4)nn3)CC[C@]3(C)[C@H](CC[C@@H]4[C@@]5(C)CC[C@H](OC(C)=O)C(C)(C)[C@@H]5CC[C@]43C)[C@@H]12` [compound 7], for which the IC50 in data set [2] (A549, 96 h) turned out to be 42.7 ± 0.6 µM; in data set [3] (Vero) it was 18.9 ± 1.4 µM; in [5] (B16-F10, 96 h), 18.8 ± 0.7 µM; in data set [7] (HEp-2, 96 h), 23.8 ± 2 µM. In addition, the EC50 in [4] (A549+RSV, treated 4 hours after viral infection, 96 h, read-out: EC50 ± SD, concentration that inhibits RSV replication by 50%) was 0.3 ± 0.1 µM; in [4] (setting [11]) it was 0.314 µM. The “Therapeutic index (TI) = IC50(A549)/EC50(A549 + RSV)” value in data set [4] came out at 142.3. The “Therapeutic index (TI) = IC50(B16F10)/EC50(A549 + RSV)” value in [4] was 62.7. The “Therapeutic index (TI) = IC50(HEP2)/EC50(A549 + RSV)” value in data set [4] came out at 79.3. Moreover, the “Therapeutic index (TI) = IC50(VERO)/EC50(A549 + RSV)” value in data set [4] stood at 63.0.
For the molecule `C#CCOC(=O)[C@]12CC[C@@H](C)[C@H](C)[C@H]1C1=CC[C@@H]3[C@@]4(C)CC[C@H](OC(C)=O)C(C)(C)[C@@H]4CC[C@@]3(C)[C@]1(C)CC2` [compound 6], in [2] (setting [12]), the IC50 is 67.2 ± 0.5 µM. Further, the IC50 in [3] (setting [13]) came out at 26.1 ± 0.6 µM. In data set [4], the “Therapeutic index (TI) = IC50(A549)/EC50(A549 + RSV)” value is given as 1.9, the “Therapeutic index (TI) = IC50(B16F10)/EC50(A549 + RSV)” value stood at 0.8, the “Therapeutic index (TI) = IC50(HEP2)/EC50(A549 + RSV)” value is 0.6 and the “Therapeutic index (TI) = IC50(VERO)/EC50(A549 + RSV)” value is on record as 0.7. For the same molecule, the EC50 in [4] (setting [11]) was found to be 36.2 ± 0.9 µM. The IC50 in data set [5] (setting [14]) amounted to 29 ± 1.1 µM. Besides, the IC50 in data set [7] (setting [15]) was found to be 20.3 ± 0.4 µM.
